Laboratory results reported in patent publication US20240043410A1, “SULPHAMOYL UREA DERIVATIVES CONTAINING ALKYL-OXACYCLOALKYL MOIETY AND USES THEREOF” (NodThera Limited, priority 2020, published 2024).

What was measured:
[1] = biological target: T1, P-glycoprotein (P-gp) (Homo sapiens, UniProt P08183); test: P-gp MDCK-MDR1 permeability assay; format: in vitro ADME; details: efflux ratio, MDCK-MDR1 cells
T1 construct: expressed in transfected cells; host or cells: MDCK-MDR1 cells
Protocol: P-gp MDCK-MDR1 Studies. The compounds of the present disclosure were tested in a MDCK-MDR1 permeability assay to assess whether they are actively transported out of cells by the efflux protein, P-glycoprotein (P-gp).
Protocol. MDCK-MDR1 cells were used between passage numbers 6-30. Cells were seeded onto Millipore Multiscreen Transwell plates at 3.4×10^5 cells/cm^2. The cells were cultured in DMEM and media was changed on Day 3. On Day 4 the P-gp inhibition study was performed. Cell culture and assay incubations were carried out at 37° C. in an atmosphere of 5% CO2 with a relative humidity of 95%. On the day of the assay, the monolayers were prepared by rinsing both apical and basolateral surfaces twice with warmed (37° C.) transport buffer (Hanks Balanced Salt Solution [HBSS] containing 25 mM HEPES and 4.45 mM glucose, pH 7.4). Cells were then incubated with transport buffer containing test compound or positive control inhibitor (elacridar) in both apical and basolateral compartments for 30 minutes at 37° C. The dosing solutions were prepared by diluting digoxin and test compound where applicable to give a final digoxin concentration of 5 μM (final DMSO concentration of 1% v/v). The fluorescent integrity marker lucifer yellow was prepared in receiver solutions in vehicle or test compound-containing transport buffer. After pre-incubation, the transport buffer was removed from both apical and basolateral compartments and replaced with the appropriate dosing or receiver solution.
For assessment of B-A permeability, transport buffer was removed from the basolateral companion plate and replaced with dosing solution. Fresh transport buffer containing lucifer yellow and test compound where applicable (final DMSO concentration 1% v/v) was added to the apical compartment insert, which was then placed into the companion plate. After a 90-minute incubation the apical compartment inserts and the companion plates were separated and compartments sampled for analysis. Seven concentrations of test compound (up to 100 μM) were assessed in addition to a vehicle control (0 μM). A triplicate determination of each concentration was performed. The positive control inhibitor was evaluated in parallel. [^3H]-digoxin was quantified by liquid scintillation counting to give disintegrations per minute (dpm). The integrity of the monolayer throughout the experiment was checked by monitoring lucifer yellow permeation using fluorimetric analysis.
The efflux ratio (ER) values of compounds of the present disclosure are shown in Table B below (“****” means <3; “***” 3≥ and <10; “**” means ≥10 and <30; “*” means ≥30).

[2] = system: IL-1β release upon NLRP3 activation in peripheral blood mononuclear cells (PBMC); test: PBMC IC50 Determination Assay; format: cell-based; details: Homo sapiens; LPS-primed PBMC stimulated with ATP (5 mM) or nigericin (10 μM); IL-1β by ELISA (Protocol A) or HTRF (Protocol B); salts tested
Protocol: PBMC IC50 Determination Assay. The compounds of the present disclosure were tested for their inhibitory activity against IL-1β release upon NLRP3 activation in peripheral blood mononuclear cells (PBMC).
Protocol A. PBMC were isolated from buffy coats by density gradient centrifugation on Histopaque-1077 (Sigma, cat no. 10771). Isolated cells were seeded into the wells of a 96-well plate and incubated for 3 h with lipopolysaccharide (LPS). Following medium exchange, the compounds of the present disclosure were added (a single compound per well) and the cells were incubated for 30 min. Next, the cells were stimulated either with ATP (5 mM) or nigericin (10 μM) for 1 h and the cell culture media from the wells were collected for further analysis. The release of IL1-β into the media was determined by a quantitative detection of IL-1β in the media using an IL-1β enzyme-linked immunosorbent assay (ELISA) Ready-SET-Go!, eBioscience cat. No. 88-7261-88. Briefly, in a first step, high affinity binding plates (Corning, Costar 9018 or NUNC Maxisorp Cat No. 44-2404) were coated overnight at 4° C. with specific capture antibody included in the kit (anti-human IL-1β ref. 14-7018-68). Subsequently, plates were blocked with blocking buffer for 1 h at room temperature (rt) and after washing with a buffer (PBS with 0.05% Tween-20) incubated with protein standard and culture media. After 2 h of incubation at rt, plates were washed and incubated with biotinylated detection antibody included in the kit (anti-human IL-1β Biotin ref. 33-7110-68) for 1 h at rt. Plates were washed and incubated with HRP-streptavidin for 30 min at rt and washed again. The signal was developed after addition of 3,3′,5,5′-tetramethylbenzidine-peroxidase (TMB) until colour appeared and the reaction was stopped by 2 M H2SO4. A microplate spectrophotometer (BioTek) was used to detect signals with 450 nm. The detection range of IL-1β 3 ELISA was 2-150 ng/mL.
Protocol B. PBMC were isolated from buffy coats by density gradient centrifugation on Histopaque-1077 (Sigma, cat no. 10771). Isolated cells were seeded into the wells (280,000 cells/well) of a 96-well plate and incubated for 3 h with lipopolysaccharide (LPS, 1 μg/mL diluted 1000× from a 1 mg/mL stock solution). The compounds of the present disclosure were added (a single compound per well) and the cells were incubated for 30 min. Next, the cells were stimulated with ATP (5 mM final concentration diluted 20× from a 100 mM stock solution) for 1 h and the cell culture media from the wells were collected for further analysis. The release of IL-1β into the media was determined by quantitative detection of IL-1 in the media using HTRF®, CisBio cat. No. 62HIL1BPEH. Briefly, cell culture supernatant were dispensed directly into the assay plate containing antibodies labelled with the HTRF® donor and acceptor. A microplate spectrophotometer (BMG) was used to detect signals at 655 nm and 620 nm. The detection range of IL-1β HTRF® was […].

[3] = Thermodynamic (equilibrium) solubility assay; format: physicochemical; details: aqueous buffer, thermodynamic from solid; 50 mM pH 7.4 phosphate buffer, 24 hours at room temperature
Protocol: Thermodynamic Solubility Studies. The compounds of the present disclosure were tested in an equilibrium solubility assay.
An appropriate amount of test and control compounds were weighed into lower chambers of Whatman Mini-UniPrep vials. To these were added 50 mM pH 7.4 phosphate buffer (450 μL) to get a super-saturated suspension. The samples were vortexed for at least 2 minutes. The Whatman Mini-UniPrep vials were shaken on a shaker for 24 hours at room temperature at 800 rpm. The vials were centrifuged for 20 minutes (eg. 4000 rpm). Samples were compressed to prepare filtrates for injection into HPLC system and the concentration calculated with a standard curve. […] As shown in the table, compounds of the present disclosure may display improved properties (e.g., over the compounds in the prior art), such as enhanced potency, solubility, membrane permeability and transporter efflux.

[4] = PAMPA permeability assay; format: in vitro ADME; details: 10 μM donor, PBS, 4 hours at room temperature, lecithin/dodecane membrane
Protocol: PAMPA Studies. The compounds of the present disclosure were tested in a PAMPA permeability assay to assess passive transcellular permeation.
Protocol. 0.2 mM working solution was prepared by diluting 10 mM stock solution with DMSO. 10 μM donor solution (5% DMSO) was prepared by diluting 20 μL of working solution with 380 μL PBS. 150 μL of 10 μM donor solutions to each well of the donor plate, whose PVDF membrane was precoated with 5 μL of 1% lecithin/dodecane mixture. Duplicates were prepared. 300 μL of PBS was added to each well of the PTFE acceptor plate. The donor plate and acceptor plate were combined and incubated for 4 hours at room temperature with shaking at 300 rpm. Preparation of TO sample: 20 μL donor solution was transferred to new well followed by the addition of 250 μL PBS (DF: 13.5), 130 μL ACN (containing internal standard) as TO sample. Preparation of acceptor sample: The plate was removed from incubator. 270 μL solution was transferred from each acceptor well and mixed with 130 μL ACN (containing internal standard) as acceptor sample. Preparation of donor sample: 20 μL solution was transferred from each donor well and mixed with 250 μL PBS (DF: 13.5), 130 μL ACN (containing internal standard) as donor sample. Acceptor samples and donor samples were all analysed by LC-MS/MS.
The measured PAMPA permeability values of compounds of the present disclosure are shown in Table B below (“$$$$” means >10 nm/“$$$” means ≥3 and <10 nm/s; “$$” means ≥1 and <3 nm/s; “$” means <1 nm/s).

T1 sequence (P08183 whole entry): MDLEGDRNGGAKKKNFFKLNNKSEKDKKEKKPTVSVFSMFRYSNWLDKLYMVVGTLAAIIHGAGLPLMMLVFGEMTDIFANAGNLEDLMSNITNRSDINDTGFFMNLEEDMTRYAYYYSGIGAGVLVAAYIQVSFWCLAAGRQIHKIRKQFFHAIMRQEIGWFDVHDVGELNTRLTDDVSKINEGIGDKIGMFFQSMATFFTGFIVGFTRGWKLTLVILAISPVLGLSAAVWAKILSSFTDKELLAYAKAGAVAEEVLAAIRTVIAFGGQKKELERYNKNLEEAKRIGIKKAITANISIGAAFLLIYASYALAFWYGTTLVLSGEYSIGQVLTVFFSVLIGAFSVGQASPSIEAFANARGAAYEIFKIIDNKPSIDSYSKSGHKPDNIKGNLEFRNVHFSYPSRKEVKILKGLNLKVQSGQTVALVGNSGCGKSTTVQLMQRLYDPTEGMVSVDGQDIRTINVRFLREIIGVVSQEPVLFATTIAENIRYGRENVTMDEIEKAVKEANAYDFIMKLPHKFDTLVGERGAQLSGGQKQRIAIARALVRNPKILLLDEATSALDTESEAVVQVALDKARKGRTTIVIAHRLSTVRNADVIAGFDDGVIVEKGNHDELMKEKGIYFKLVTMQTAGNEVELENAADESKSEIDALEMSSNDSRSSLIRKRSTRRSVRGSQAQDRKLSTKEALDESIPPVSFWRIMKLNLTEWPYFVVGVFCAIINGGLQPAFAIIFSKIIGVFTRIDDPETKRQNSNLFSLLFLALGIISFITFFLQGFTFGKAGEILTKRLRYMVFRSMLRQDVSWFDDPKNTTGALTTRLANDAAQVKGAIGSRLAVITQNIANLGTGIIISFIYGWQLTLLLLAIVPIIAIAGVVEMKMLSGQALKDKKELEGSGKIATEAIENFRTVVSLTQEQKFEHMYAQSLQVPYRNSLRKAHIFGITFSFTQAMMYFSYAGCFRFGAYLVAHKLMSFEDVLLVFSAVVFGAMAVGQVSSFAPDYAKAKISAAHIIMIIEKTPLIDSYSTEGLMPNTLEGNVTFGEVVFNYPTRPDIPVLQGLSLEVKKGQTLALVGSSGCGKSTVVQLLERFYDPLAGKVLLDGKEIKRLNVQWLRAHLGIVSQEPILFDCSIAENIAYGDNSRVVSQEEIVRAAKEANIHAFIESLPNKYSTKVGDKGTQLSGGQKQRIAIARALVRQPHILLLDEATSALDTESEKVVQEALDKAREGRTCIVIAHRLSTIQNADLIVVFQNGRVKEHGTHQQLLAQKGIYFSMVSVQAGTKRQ

Structure (SMILES) | MDCK-MDR1 ER [1] | IC50 [2] | solubility thermodynamic at 24 h [3] | PAMPA Pe [4]
Cn1cc(N(CC2CCCCO2)S(=O)(=O)NC(=O)Nc2c3c(cc4c2CC4)CC3)cn1 (stereo in doubt) [Compound 7B, Sodium [(1-methyl-1H-pyrazol-4-yl)({[(2R)-oxan-2-yl]methyl})sulfamoyl]-({tricyclo[6.2.0.0^3,6]deca-1,3(6),7-trien-2-yl}carbamoyl)azanide)] | * (“*” means ≥30) | < 0.1 µM | 3000 to 10000 µg/mL | $$$ (“$$$” means ≥3 and <10 nm/s)
Cn1cc(N(CC2CCCCO2)S(=O)(=O)NC(=O)Nc2c3c(cc4c2CC4)CC3)cn1 (stereo in doubt) [Compound 7A, Sodium [(1-methyl-1H-pyrazol-4-yl)({[(2S)-oxan-2-yl]methyl})sulfamoyl]-({tricyclo[6.2.0.0^3,6]deca-1,3(6),7-trien-2-yl}carbamoyl)azanide] | ** (“**” means ≥10 and <30) | < 0.1 µM | 3000 to 10000 µg/mL | $$$ (“$$$” means ≥3 and <10 nm/s)
Cn1cc(N(C[C@H]2CCCO2)S(=O)(=O)NC(=O)Nc2c3c(cc4c2CC4)CC3)cn1 [Compound 3B, Sodium [(1-methyl-1H-pyrazol-4-yl)({[(2R)-oxolan-2-yl]methyl})sulfamoyl]-({tricyclo[6.2.0.0^3,6]deca-1,3(6),7-trien-2-yl}carbamoyl)azanide] | * (“*” means ≥30) | < 0.1 µM | – | –
Cn1cc(N(C[C@@H]2CCCO2)S(=O)(=O)NC(=O)Nc2c3c(cc4c2CC4)CC3)cn1 [Compound 3A, Sodium [(1-methyl-1H-pyrazol-4-yl)({[(2S)-oxolan-2-yl]methyl})sulfamoyl]-({tricyclo[6.2.0.0^3,6]deca-1,3(6),7-trien-2-yl}carbamoyl)azanide] | * (“*” means ≥30) | < 0.1 µM | – | –
